Tests used:
[1] = biological target: T1, NK3 (Homo sapiens, UniProt P29371); assay: Signal transduction (ST), intracellular Ca++ (FLIPR), NK3; assay type: cell-based; settings: read-out: pIC50 NK3 (converted)
T1 sequence (P29371 1-465): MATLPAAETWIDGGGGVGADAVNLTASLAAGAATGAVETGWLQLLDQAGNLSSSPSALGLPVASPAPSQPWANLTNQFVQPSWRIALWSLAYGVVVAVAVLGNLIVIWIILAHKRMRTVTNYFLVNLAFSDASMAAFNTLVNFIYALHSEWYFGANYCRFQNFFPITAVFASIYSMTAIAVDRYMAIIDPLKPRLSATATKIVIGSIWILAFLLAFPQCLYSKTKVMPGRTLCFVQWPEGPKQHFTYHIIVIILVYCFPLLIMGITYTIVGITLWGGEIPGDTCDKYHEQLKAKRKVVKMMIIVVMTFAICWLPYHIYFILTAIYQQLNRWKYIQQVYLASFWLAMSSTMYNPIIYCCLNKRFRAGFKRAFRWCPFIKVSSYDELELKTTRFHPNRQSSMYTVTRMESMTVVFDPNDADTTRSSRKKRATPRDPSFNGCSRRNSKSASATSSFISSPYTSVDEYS
Procedure: [The procedure below names another target; the source lists this target under the same test.] (§1) This test evaluates in vitro functional NK1 antagonistic activity. For the measurements of intracellular Ca^++ concentrations the cells were grown on 96-well (black wall/transparent bottom) plates from Costar for 2 days until they reached confluence. The cells were loaded with 2 μM Fluo3 in DMEM containing 0.1% BSA and 2.5 mM probenecid for 1 h at 37° C. They were washed 3× with a Krebs buffer (140 mM NaCl, 1 mM MgCl2×6H2O, 5 mM KCl, 10 mM glucose, 5 mM HEPES; 1.25 mM CaCl2; pH 7.4) containing 2.5 mM probenecid and 0.1% BSA (Ca^++-buffer). The cells were preincubated with a concentration range of antagonists for 20 min at RT and Ca^++-signals after addition of the agonists were measured in a Fluorescence Image Plate Reader (FLIPR from Molecular Devices, Crawley, England). The peak of the Ca^++-transient was considered as the relevant signal and the mean values of corresponding wells were analysed as described below.
The sigmoidal dose response curves were analysed by computerised curve-fitting, using the GraphPad Program. […] For antagonist responses the IC50-value was calculated using non-linear regression.
The last columns indicates—without being limited therefore—for which the compounds might be most suitable. Of course, since for some neurokinin receptors no data was determined, it is obvious that these compounds might be attributed to another suitable use.

[2] = biological target: NK1 (Homo sapiens, UniProt P25103); assay: Signal transduction (ST), intracellular Ca++ (FLIPR), NK1 antagonistic activity; assay type: cell-based; settings: read-out: pIC50 NK1 (converted)
Chain of NK1 (P25103 whole entry): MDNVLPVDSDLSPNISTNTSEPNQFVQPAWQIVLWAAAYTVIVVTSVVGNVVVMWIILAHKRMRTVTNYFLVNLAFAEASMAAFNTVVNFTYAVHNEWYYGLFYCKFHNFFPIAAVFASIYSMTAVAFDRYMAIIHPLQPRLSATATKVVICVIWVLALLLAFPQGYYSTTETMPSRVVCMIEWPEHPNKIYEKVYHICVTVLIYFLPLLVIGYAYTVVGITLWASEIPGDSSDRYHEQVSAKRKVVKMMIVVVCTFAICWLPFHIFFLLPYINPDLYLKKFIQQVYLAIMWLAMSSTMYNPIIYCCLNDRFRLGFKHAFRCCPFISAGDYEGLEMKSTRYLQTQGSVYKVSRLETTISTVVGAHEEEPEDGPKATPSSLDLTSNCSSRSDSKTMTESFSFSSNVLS
Procedure: as §1
The sigmoidal dose response curves were analysed by computerised curve-fitting, using the GraphPad Program. […] For antagonist responses the IC50-value was calculated using non-linear regression. […]

Structure (SMILES)	IC50 [1] [nM]	IC50 [2] [nM]
CC(C)(C)OC(=O)N1CCC(C(=O)N2CCC(N3CCN([C@H]4CCN(C(=O)c5cc(C(F)(F)F)cc(C(F)(F)F)c5)[C@H](Cc5ccccc5)C4)CC3)C2)C1 (stereo partly shown) [Compound 228]	6310	25.1
O=C(c1ccccc1Cl)N1CCC(N2CCN([C@@H]3CCN(C(=O)c4cc(C(F)(F)F)cc(C(F)(F)F)c4)[C@H](Cc4ccc(Cl)c(Cl)c4)C3)CC2)C1 (relative stereo) [Compound 141]	3160	126
CC(C)(C)OC(=O)N1CCC[C@@H]1C(=O)N1CCC(N2CCN([C@H]3CCN(C(=O)c4cc(C(F)(F)F)cc(C(F)(F)F)c4)[C@H](Cc4ccccc4)C3)CC2)C1 (stereo partly shown) [Compound 189]	251	7.94
O=C1CCCN1CC(=O)N1CCC(N2CCN([C@H]3CCN(C(=O)c4cc(C(F)(F)F)cc(C(F)(F)F)c4)[C@H](Cc4ccccc4)C3)CC2)C1 (stereo partly shown) [Compound 214]	3980	20
O=C(C1CCCCC1)N1CCC(N2CCN(C3CCN(C(=O)c4cc(C(F)(F)F)cc(C(F)(F)F)c4)C(Cc4ccccc4)C3)CC2)C1 (single isomer, unassigned) [Compound 402]	501	15.8
O=C(CN1CCOC1=O)N1CCC(N2CCN([C@H]3CCN(C(=O)c4cc(C(F)(F)F)cc(C(F)(F)F)c4)[C@H](Cc4ccccc4)C3)CC2)C1 (stereo partly shown) [Compound 215]	5010	31.6
O=C(C1CC1)N1CCC(N2CCN(C3CCN(C(=O)c4cc(C(F)(F)F)cc(C(F)(F)F)c4)C(Cc4ccc(F)c(F)c4)C3)CC2)C1 (single isomer, unassigned) [Compound 231]	3160	6.31
CC1(C)OCC(CNC(=C[N+](=O)[O-])N2CCC(N3CCN([C@H]4CCN(C(=O)c5cc(C(F)(F)F)cc(C(F)(F)F)c5)[C@H](Cc5ccccc5)C4)CC3)C2)O1 (stereo partly shown) [Compound 376]	3980	25.1
CC(C(=O)N1CCC(N2CCN([C@H]3CCN(C(=O)c4cc(C(F)(F)F)cc(C(F)(F)F)c4)[C@H](Cc4ccc(F)c(F)c4)C3)CC2)C1)c1ccccc1 (single isomer, unassigned) [Compound 233]	794	25.1
COc1cc(CC(=O)N2CCC(N3CCN([C@H]4CCN(C(=O)c5cc(C(F)(F)F)cc(C(F)(F)F)c5)[C@H](Cc5ccccc5)C4)CC3)C2)cc(OC)c1OC (stereo partly shown) [Compound 65]	3160	12.6
O=C(C1CCOC1)N1CCC(N2CCN(C3CCN(C(=O)c4cc(C(F)(F)F)cc(C(F)(F)F)c4)C(Cc4ccc(F)cc4)C3)CC2)C1 (stereo not shown) [Compound 274]	3980	10
CCOCCn1c(CN2CCC(N3CCN([C@H]4CCN(C(=O)c5cc(C(F)(F)F)cc(C(F)(F)F)c5)[C@H](Cc5ccccc5)C4)CC3)C2)nc2ccccc21 (stereo partly shown) [Compound 11]	3160	126
CC(=O)N1CCCC1C(=O)N1CCC(N2CCN([C@H]3CCN(C(=O)c4cc(C(F)(F)F)cc(C(F)(F)F)c4)[C@H](Cc4ccccc4)C3)CC2)C1 (stereo partly shown) [Compound 187]	5010	15.8
Cc1nnsc1C(=O)N1CCC(N2CCN(C3CCN(C(=O)c4cc(C(F)(F)F)cc(C(F)(F)F)c4)C(Cc4ccc(F)c(F)c4)C3)CC2)C1 (single isomer, unassigned) [Compound 236]	5010	3.98
CC(C)N1CC(CN2CCC(N3CCN(C4CCN(C(=O)c5cc(C(F)(F)F)cc(C(F)(F)F)c5)C(Cc5ccccc5)C4)CC3)C2)OC1=O (stereo not shown) [Compound 385]	3980	31.6
O=C(C1CC1)N1CCC(N2CCN(C3CCN(C(=O)c4cc(C(F)(F)F)cc(C(F)(F)F)c4)C(Cc4ccc(F)cc4)C3)CC2)C1 (stereo not shown) [Compound 277]	2510	10
O=C(C1CCOC1)N1CCC(N2CCN(C3CCN(C(=O)c4cc(C(F)(F)F)cc(C(F)(F)F)c4)C(Cc4ccc(F)c(F)c4)C3)CC2)C1 (single isomer, unassigned) [Compound 242]	2510	10

The next lines start with the values.

IC50 [1] [nM]	IC50 [2] [nM]	Structure (SMILES)
5010	12.6	O=C(C1COc2ccccc2O1)N1CCC(N2CCN([C@H]3CCN(C(=O)c4cc(C(F)(F)F)cc(C(F)(F)F)c4)[C@H](Cc4ccccc4)C3)CC2)C1 (stereo partly shown) [Compound 98]
2510	31.6	O=C(C(c1ccccc1)N1CCCC1)N1CCC(N2CCN(C3CCN(C(=O)c4cc(C(F)(F)F)cc(C(F)(F)F)c4)C(Cc4ccccc4)C3)CC2)C1 (stereo not shown) [Compound 108]
398	12.6	N#Cc1ccccc1C(=O)N1CCC(N2CCN(C3CCN(C(=O)c4cc(C(F)(F)F)cc(C(F)(F)F)c4)C(Cc4ccccc4)C3)CC2)C1 (stereo not shown) [Compound 195]
3160	6.31	Cc1nc(C)c(C(=O)N2CCC(N3CCN([C@H]4CCN(C(=O)c5cc(C(F)(F)F)cc(C(F)(F)F)c5)[C@H](Cc5ccccc5)C4)CC3)C2)s1 (stereo partly shown) [Compound 50]
1000	20	O=C(c1cc(C(F)(F)F)cc(C(F)(F)F)c1)N1CCC(N2CCN(C3CCN(C(=O)C(F)(F)F)C3)CC2)CC1Cc1ccccc1 (stereo not shown) [Compound 203]
2000	12.6	CN(C)C(=O)N1CCC(N2CCN([C@H]3CCN(C(=O)c4cc(C(F)(F)F)cc(C(F)(F)F)c4)[C@H](Cc4ccccc4)C3)CC2)C1 (stereo partly shown) [Compound 145]
2510	50.1	O=C(c1ccc(Cl)cc1Cl)N1CCC(N2CCN([C@H]3CCN(C(=O)c4cc(C(F)(F)F)cc(C(F)(F)F)c4)[C@H](Cc4ccccc4)C3)CC2)C1 (stereo partly shown) [Compound 22]
631	31.6	O=C(c1csnn1)N1CCC(N2CCN([C@H]3CCN(C(=O)c4cc(C(F)(F)F)cc(C(F)(F)F)c4)[C@H](Cc4ccccc4)C3)CC2)C1 (stereo partly shown) [Compound 52]
6310	100	O=C(c1cc(C(F)(F)F)cc(C(F)(F)F)c1)N1CC[C@H](N2CCN(C3CCN(Cc4nc5ccccc5[nH]4)C3)CC2)C[C@H]1Cc1ccccc1 (stereo partly shown) [Compound 10]
3160	39.8	CC(C)(C)OC(=O)N1CCC(N2CCN(C3CCN(C(=O)c4cc(C(F)(F)F)cc(C(F)(F)F)c4)C(Cc4ccccc4)C3)CC2)C1 (stereo not shown) [Compound 130]
794	39.8	O=C(c1cccc2ccccc12)N1CCC(N2CCN([C@H]3CCN(C(=O)c4cc(C(F)(F)F)cc(C(F)(F)F)c4)[C@H](Cc4ccccc4)C3)CC2)C1 (stereo partly shown) [Compound 54]
2510	31.6	CC(=O)N1CCC(N2CCN([C@H]3CCN(C(=O)c4cc(C(F)(F)F)cc(C(F)(F)F)c4)[C@H](Cc4ccccc4)C3)CC2)C1 (stereo partly shown) [Compound 198]
1260	126	O=C(c1ccccc1Cl)N1CCC(N2CCN(C3CCN(C(=O)c4cc(C(F)(F)F)cc(C(F)(F)F)c4)C(Cc4ccccc4)C3)CC2)C1 (single isomer, unassigned) [Compound 87]
794	15.8	CC(C)(C)OCC(=O)N1CCC(N2CCN([C@H]3CCN(C(=O)c4cc(C(F)(F)F)cc(C(F)(F)F)c4)[C@H](Cc4ccccc4)C3)CC2)C1 (stereo partly shown) [Compound 388]
5010	20	Cc1nccn1C(C(=O)N1CCC(N2CCN(C3CCN(C(=O)c4cc(C(F)(F)F)cc(C(F)(F)F)c4)C(Cc4ccccc4)C3)CC2)C1)c1ccccc1 (stereo not shown) [Compound 110]
1580	126	O=C(c1ccccc1)N1CCC(N2CCN(C3CCN(C(=O)c4cc(C(F)(F)F)cc(C(F)(F)F)c4)C(Cc4ccccc4)C3)CC2)C1 (stereo not shown) [Compound 3]
316	200	O=C(c1cc(C(F)(F)F)cc(C(F)(F)F)c1)N1CC[C@H](N2CCN(C3CCN(c4nc5ccccc5s4)C3)CC2)C[C@H]1Cc1ccccc1 (stereo partly shown) [Compound 7]
2510	31.6	O=C(c1cnc2ccccc2n1)N1CCC(N2CCN([C@H]3CCN(C(=O)c4cc(C(F)(F)F)cc(C(F)(F)F)c4)[C@H](Cc4ccccc4)C3)CC2)C1 (stereo partly shown) [Compound 60]
2510	15.8	O=C(C(=O)N1CCC(N2CCN(C3CCN(C(=O)c4cc(C(F)(F)F)cc(C(F)(F)F)c4)C(Cc4ccccc4)C3)CC2)C1)c1ccco1 (single isomer, unassigned) [Compound 191]
2510	10	O=C(C1CCCO1)N1CCC(N2CCN([C@H]3CCN(C(=O)c4cc(C(F)(F)F)cc(C(F)(F)F)c4)[C@H](Cc4ccccc4)C3)CC2)C1 (stereo partly shown) [Compound 97]
2510	63.1	COCC(=O)N1CCC(N2CCN(C3CCN(C(=O)c4cc(C(F)(F)F)cc(C(F)(F)F)c4)C(Cc4ccccc4)C3)CC2)C1 (stereo not shown) [Compound 177]

From patent US7795261B2, “Substituted 1-piperidin-4-yl-4-pyrrolidin-3-yl-piperazine derivatives and their use as neurokinin antagonists” (Janssen Pharmaceutica NV, priority 2002, dated 2010)
